Data published in US6201001A, “Imidazole antiproliferative agents” (Abbott Laboratories, priority 1999, dated 2001).

Experiments:
[1] = tested on: human colon adenocarcinoma, MDR positive (HCT-15) cells; assay: 48-hour cellular proliferation assay, HCT-15 cells (sulforhodamine); assay type: cell-based; conditions: HCT-15, 48-hour
Protocol: (§1) Compounds of this invention were tested in a 48-hour cellular proliferation assay which uses human colon adenocarcinoma, MDR positive (HCT-15) cells, and human lung large cell carcinoma, MDR negative (NCI-H460) cells, in the 96-well microtitre format described in Skehan P., et al. New Colorimetric Cytotoxicity Assay for Anticancer Drug Screening. 1990, J. Natl. Cancer Inst. 82:1107-1112, hereby incorporated by reference. Briefly, the wells of a microtitre plate were charged sequentially with cultured cells and compounds of the invention (1.0×10^-4 to 1.0×10^-11 M in 10% DMSO prepared by dissolving compounds of the invention in DMSO and adding 11 μL of the DMSO solution to 100 μL of culture medium for a final DMSO concentration of 10%). Two of the following controls were also present in each microtitre plate: a solvent (DMSO) control without drug that yielded a 0% inhibition level and a trichloroacetic acid-treated well that yielded a 100% inhibition level. The cells were grown in culture (37° C., 5% CO2 atmosphere) for 48 hours then fixed by the addition of trichloroacetic acid. The wells were stained with sulforhodamine, washed with 1% acetic acid, and treated with 0.01M tris buffer (100 μL) to solubilize the adherent dye. The absorbance of the dye solution was measured with a Molecular Devices SpectraMax340 plate reader. The percent inhibition values were obtained by calculating the proportional response of the experimental values to the absorbance values of the controls.

[2] = tested on: human lung large cell carcinoma, MDR negative (NCI-H460) cells; assay: 48-hour cellular proliferation assay, NCI-H460 cells (sulforhodamine); assay type: cell-based; conditions: NCI-H460, 48-hour
Protocol: as §1

SMILES | IC50 [1] | IC50 [2]
COc1ccc(-c2c(-c3cc(OC)c(OC)c(OC)c3)ncn2C)cc1N [Example 1, 2-methoxy-5-(1-methyl-4-(3,4,5-trimethoxyphenyl)-1H-imidazol-5-yl)phenylamine] | 220 nM | 170 nM
COc1ccc(-c2ncn(C)c2-c2cc(OC)c(OC)c(OC)c2)cc1N [Example 2, 2-methoxy-5-(1-methyl-5-(3,4,5-trimethoxyphenyl)-1H-imidazol-4-yl)phenylamine] | 79 nM | 34 nM
COc1ccc(-c2c(-c3cc(OC)c(OC)c(OC)c3)ncn2C)cc1F [Example 3, 5-(3-fluoro-4-methoxyphenyl)-1-methyl-4-(3,4,5-trimethoxyphenyl)-1H-imidazole] | 850 nM | 920 nM
COc1cc(-c2ncn(C)c2-c2ccc(N(C)C)cc2)cc(OC)c1OC [Example 4, N,N-dimethyl-4-[1-methyl-4-(3,4,5-trimethoxyphenyl)-1H-imidazol-5-yl]aniline] | 250 nM | 400 nM
